From patent US20230348424A1, “HETEROCYCLIC COMPOUNDS AND METHODS OF USE” (Schrödinger, Inc., priority 2022, published 2023)

Target: SOS1:KRAS (G12C) interaction (Homo sapiens (Human), UniProt Q07889)
Assay: SOS1 KRas(G12C) FRET Assay
Assay type: binding
Settings: 0.5 nM His10-SOS1 (res. 564-1049), 2.5 nM GST-KRAS G12C (res. 1-169), 2 hrs at RT
Experimental: Inhibition of the SOS 1:KRAS interaction was measured using purified GST-tagged KRAS (res. 1-169, G12C, purified based on Hillig, et al., Proc Natl Acad Sci USA (2019); 116(7):2551-2560) and recombinant His10-SOS1 (res. 564-1049; purified based on Hillig, et al.). The final assay was performed at 20 uL with 0.5 nM SOS1 protein and 2.5 nM KRAS protein in a buffer of PBS, 0.1% BSA, 5 mM MgCh, 0.0025% Igepal, 100 mM KF, 5 mM DTT in a white 384 square well OptiPlate (PerkinElmer, Cat. 6007290). A 2x KRAS working solution was prepared in an assay buffer containing 5 nM GST-KRAS G12C and 2 nM anti-GST-Eu(K) (Cisbio, Cat. 61GSTKLA) and pre-incubated for 15 minutes at 25° C. […] The final DMSO concentration is 0.5%. Plates were incubated at RT for 2 hrs before the FRET signal was measured using Envision at emission 665 nm and 615 nm. FRET signal was converted to percentage of protein-protein interaction using the following equation:
• C: signal with compound treatment • P: signal for positive control (DMSO) • N: signal for negative control (no SOS1 added)
IC50 and Hill coefficients were obtained using Graph Pad Prism (Graph Pad software, Inc, USA) with non-linear regression analysis.

Sequence of SOS1:KRAS (G12C) interaction (Q07889 564-1049, stated change not applied): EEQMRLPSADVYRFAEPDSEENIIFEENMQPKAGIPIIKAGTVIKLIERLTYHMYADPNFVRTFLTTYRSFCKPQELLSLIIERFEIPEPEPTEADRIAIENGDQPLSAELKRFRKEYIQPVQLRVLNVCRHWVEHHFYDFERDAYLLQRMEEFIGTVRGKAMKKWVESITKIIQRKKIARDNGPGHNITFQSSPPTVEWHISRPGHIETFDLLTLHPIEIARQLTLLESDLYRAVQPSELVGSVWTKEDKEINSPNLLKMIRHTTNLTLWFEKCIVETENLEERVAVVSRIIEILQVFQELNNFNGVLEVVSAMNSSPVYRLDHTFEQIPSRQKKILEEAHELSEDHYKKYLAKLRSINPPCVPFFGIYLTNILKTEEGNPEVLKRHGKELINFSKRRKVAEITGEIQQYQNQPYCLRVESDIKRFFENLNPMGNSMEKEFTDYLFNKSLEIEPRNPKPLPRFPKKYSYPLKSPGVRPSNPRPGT

SMILES	IC50 [nM]
C[C@@H](NC(=O)c1cn(C2CCC2)c(=O)cc1N[C@H]1[C@@H]2CC[C@H]1CN(C)C2)c1cccc(C(F)F)c1F (single isomer, unassigned) [Example 214]	10.6
C[C@@H](NC(=O)c1cn(C2CCC2)c(=O)cc1N[C@@H]1[C@@H]2CC[C@H]1CN(C)C2)c1cccc(C(F)F)c1F (single isomer, unassigned) [Example 215]	68.2
C[C@@H](NC(=O)c1cn([C@@H]2CC23CC3)c(=O)cc1N[C@H]1[C@@H]2CN(C)C[C@@H]21)c1cccc(C(F)(F)F)c1F (single isomer, unassigned) [Example 218]	15.8
C[C@@H](NC(=O)c1cn([C@H]2CC23CC3)c(=O)cc1N[C@H]1[C@@H]2CN(C)C[C@@H]21)c1cccc(C(F)(F)F)c1F (single isomer, unassigned) [Example 219]	26.9
C[C@@H](NC(=O)c1cn([C@@]2(C(F)(F)F)CCOC2)c(=O)cc1N[C@H]1[C@@H]2CN(C)C[C@@H]21)c1cccc(C(F)F)c1F (single isomer, unassigned) [Example 234]	9.2
C[C@@H](NC(=O)c1cn([C@]2(C(F)(F)F)CCOC2)c(=O)cc1N[C@H]1[C@@H]2CN(C)C[C@@H]21)c1cccc(C(F)F)c1F (single isomer, unassigned) [Example 235]	142
C[C@@H](NC(=O)c1cn(C2(C(F)F)CC2)c(=O)cc1N[C@H]1C[C@H]2C[C@@H]1CN2C)c1cccc(C(F)F)c1F (single isomer, unassigned) [Example 236]	45.3
C[C@@H](NC(=O)c1cn(C2(C(F)F)CC2)c(=O)cc1N[C@H]1C[C@@H]2C[C@H]1CN2C)c1cccc(C(F)F)c1F (single isomer, unassigned) [Example 237]	19.4
C[C@@H](NC(=O)c1cn(C2(C(F)F)CC2)c(=O)cc1N[C@@H]1C[C@@H]2C[C@H]1CN2C)c1cccc(C(F)F)c1F (single isomer, unassigned) [Example 238]	29.3
C[C@@H](NC(=O)c1cn(C2(C(F)F)CC2)c(=O)cc1N[C@@H]1C[C@H]2C[C@@H]1CN2C)c1cccc(C(F)F)c1F (single isomer, unassigned) [Example 239]	21.5
C[C@@H](NC(=O)c1cn(C2(C(F)F)CC2)c(=O)cc1N[C@H]1[C@@H]2CC[C@H]1CN(C)C2)c1cccc(C(F)F)c1F (single isomer, unassigned) [Example 245]	44.2
C[C@@H](NC(=O)c1cn(C2(C(F)F)CC2)c(=O)cc1N[C@@H]1[C@@H]2CC[C@H]1CN(C)C2)c1cccc(C(F)F)c1F (single isomer, unassigned) [Example 246]	16.1
C[C@@H](NC(=O)c1cn([C@H]2C[C@@H](C3CC3)C2)c(=O)cc1N[C@H]1[C@@H]2CN(C)C[C@@H]21)c1cccc(C(F)F)c1F (single isomer, unassigned) [Example 248]	24.1
C[C@@H](NC(=O)c1cn([C@H]2C[C@H](C3CC3)C2)c(=O)cc1N[C@H]1[C@@H]2CN(C)C[C@@H]21)c1cccc(C(F)F)c1F (single isomer, unassigned) [Example 249]	16.5
C[C@@H](NC(=O)c1cn(C2(C(F)F)CC2)c(=O)cc1N[C@@H]1[C@@H]2C[C@H]1CN(C)C2)c1cccc(C(F)F)c1F (single isomer, unassigned) [Example 250]	21.7
C[C@@H](NC(=O)c1cn(C2(C(F)F)CC2)c(=O)cc1N[C@H]1[C@@H]2C[C@H]1CN(C)C2)c1cccc(C(F)F)c1F (single isomer, unassigned) [Example 251]	34.1
C[C@@H](NC(=O)c1cn(C2(C(F)F)CCC2)c(=O)cc1N[C@@H]1[C@@H]2C[C@H]1CN(C)C2)c1cccc(C(F)F)c1F (single isomer, unassigned) [Example 252]	17
C[C@@H](NC(=O)c1cn(C2(C(F)F)CCC2)c(=O)cc1N[C@H]1[C@@H]2C[C@H]1CN(C)C2)c1cccc(C(F)F)c1F (single isomer, unassigned) [Example 253]	43.1
C[C@@H](NC(=O)c1cn([C@@H]2CC23CC3)c(=O)cc1N[C@H]1[C@@H]2CN(C)C[C@@H]21)c1cccc(C(C)(F)F)c1F (single isomer, unassigned) [Example 254]	13
C[C@@H](NC(=O)c1cn([C@H]2CC23CC3)c(=O)cc1N[C@H]1[C@@H]2CN(C)C[C@@H]21)c1cccc(C(C)(F)F)c1F (single isomer, unassigned) [Example 255]	27
C[C@@H](NC(=O)c1cn([C@@H]2CCC2(F)F)c(=O)cc1N[C@H]1[C@@H]2CN(C)C[C@@H]21)c1cccc(C(F)(F)F)c1 (single isomer, unassigned) [Example 256]	13.9
C[C@@H](NC(=O)c1cn([C@H]2CCC2(F)F)c(=O)cc1N[C@H]1[C@@H]2CN(C)C[C@@H]21)c1cccc(C(F)(F)F)c1 (single isomer, unassigned) [Example 257]	85.8

Further lines, results first:

IC50 [nM]	SMILES
76.3	C[C@@H](NC(=O)c1cn(C2CC(F)(F)C2)c(=O)cc1N[C@H]1[C@@H]2CC[C@H]1CN(C)C2)c1cccc(C(F)F)c1F (single isomer, unassigned) [Example 258]
10.4	C[C@@H](NC(=O)c1cn(C2CC(F)(F)C2)c(=O)cc1N[C@@H]1[C@@H]2CC[C@H]1CN(C)C2)c1cccc(C(F)F)c1F (single isomer, unassigned) [Example 259]
12.4	C[C@@H](NC(=O)c1cn(C2(CF)CC2)c(=O)cc1N[C@H]1[C@@H]2CC[C@H]1CN(C)C2)c1cccc(C(F)F)c1F (single isomer, unassigned) [Example 260]
41.4	C[C@@H](NC(=O)c1cn(C2(CF)CC2)c(=O)cc1N[C@@H]1[C@@H]2CC[C@H]1CN(C)C2)c1cccc(C(F)F)c1F (single isomer, unassigned) [Example 261]
27.8	CC(=O)N1CC[C@](C)(n2cc(C(=O)N[C@H](C)c3cccc(C(F)F)c3F)c(NC3CCN(C)CC3)cc2=O)C1 (single isomer, unassigned) [Example 265]
1.4	CC(=O)N1CC[C@@](C)(n2cc(C(=O)N[C@H](C)c3cccc(C(F)F)c3F)c(NC3CCN(C)CC3)cc2=O)C1 (single isomer, unassigned) [Example 266]
36.9	C[C@@H](NC(=O)c1cn([C@H]2C[C@@H]2C)c(=O)cc1N[C@H]1[C@@H]2CN(C)C[C@@H]21)c1cccc(C(F)F)c1F (single isomer, unassigned) [Example 271]
29.1	C[C@@H]1C[C@H]1n1cc(C(=O)N[C@H](C)c2cccc(C(F)F)c2F)c(N[C@H]2[C@@H]3CN(C)C[C@@H]32)cc1=O (single isomer, unassigned) [Example 272]
15.7	C[C@@H]1C[C@@H]1n1cc(C(=O)N[C@H](C)c2cccc(C(F)F)c2F)c(N[C@H]2[C@@H]3CN(C)C[C@@H]32)cc1=O (single isomer, unassigned) [Example 273]
10.6	C[C@@H](NC(=O)c1cn([C@@H]2C[C@@H]2C)c(=O)cc1N[C@H]1[C@@H]2CN(C)C[C@@H]21)c1cccc(C(F)F)c1F (single isomer, unassigned) [Example 274]
361	CN1C[C@@H]2[C@H](C1)[C@H]2Nc1cc(=O)n(C2(C(F)F)CC2)cc1C(=O)N[C@@H](c1cccc(C(F)F)c1F)C(F)(F)F (single isomer, unassigned) [Example 275]
> 10000	CN1C[C@@H]2[C@H](C1)[C@H]2Nc1cc(=O)n(C2(C(F)F)CC2)cc1C(=O)N[C@H](c1cccc(C(F)F)c1F)C(F)(F)F (single isomer, unassigned) [Example 276]
